These results are taken from patent US20060018864A1, “Cosmetic preparation containing glycerylamino acid derivative” (priority 2002, published 2006).

Read-outs that look alike come from different tables or passages of the source. Some results are limits rather than exact numbers.

Series [1] relates to skin (forearm of panelists). Nature of the series: Moisturizing effect on skin: skin conductance (SKICON200-EX) on forearm of panelists. It counts as in vivo, human. The note with it: for change in vivo at 5 %: Homo sapiens, topical, 20 min, read-out: Moisturizing effect on skin. As for the experimental part:
Evaluation was carried out in a manner that forearm of panelists was washed and then applied with 100 μl of aqueous amino acid N-glyceryl derivative solution prepared in 5% concentration. Then, conductance value of the skin was measured by SKICON200-EX (manufactured by IBS K. K.) before the application and in 20 minutes elapsed after the application.
Moisturizing effect on skin was evaluated by the following criteria.
Moisturizing effect on skin rating criteria • ◯: Conductance changing ratio is 10% more • □: Conductance changing ratio is 3% or more and less than 10% • X: Conductance changing ratio is less than 3.

Series [2] in a line: Moisturizing effect measurement employing keratin powder (ground wool). It counts as physicochemical. As to conditions: (B/A)×100: water retained after further 6 hours at 20° C., 20.0% relative humidity, relative to water absorbed at 79.2% relative humidity for 48 hours. As for the experimental part:
For the constant-humidity bath under 20.0% of relative humidity, saturated aqueous potassium acetate solution was employed.
Moisturizing effect was evaluated by the following criteria,
Moisturizing effect rating criteria • ⊚: 60 or more • ◯: 50 or more and less than 60 • Δ: 40 or more and less than 50 • X: Less than 40

The nature of series [3]: Moisture-absorption ability measurement employing keratin powder (ground wool). It counts as physicochemical. The note with it: keratin powder with sample, 20° C., 79.2% relative humidity, 48 hours; absorbed water per 1 g of keratin powder. As for the experimental part:
[Method of Moisture-Absorption Ability Measurement Carried Out by Employing Keratin Powder (Ground Wool)]
Moisture-absorption ability was evaluated by the following criteria.
Moisture-absorption ability rating criteria • ⊚: Amount of absorbed water per 1 g of keratin powder is 0.60 g or more. • ◯: Amount of absorbed water per 1 g of keratin powder is 0.50 g or more and less than 0.60 g • Δ: Amount of absorbed water per 1 g of keratin powder is 0.40 g or more and less than 0.50 g • X: Amount of absorbed water per 1 g of keratin powder is less than 0.40 g [Method of Moisturizing Effect Measurement Carried Out by Employing Keratin Powder (Ground Wool)]

A short description of series [4]: Stability evaluation: odor of sample solution after storage at 50° C. for 1 month. The note with it: for Stability: 5% by weight sample solution, sealed, 50° C., 1 month, odor, average of 5 panelists (3: no degradation odor, 1: strong degradation odor); for Formation of homogeneous solution of sample: 5% by weight sample solution for stability evaluation.
Source text: [Method of Stability Evaluation]
After 1 month being elapsed, the sealing was opened, followed by odor of samples being evaluated by 5 panelists according to the following criteria.
Odor rating criteria • 3: No degradation odor • 2: Almost no degradation odor • 1: Strong degradation odor
Odor evaluation value of each sample was the average of values determined by 5 panelists; the evaluation result was represented by the following marks rated according to respective criteria. • ∘: 2.4 or more and less than 3 • □: 1.8 or more and less than 2.4 • X: Less than 1.8
The mark [5] stands for this setting: 100 μl of 5% aqueous solution on washed forearm, ten panelists, conductance changing ratio before vs 20 minutes after application.

“1 sodium N-glycerylaspartate [Glyceryl derivative of aspartic acid]”: in series [1] (setting [5]), the “Moisturizing effect on skin” value is “⊚”.
Turning to `CC(O)CCO` (centres unmarked) [1,3-Butylene glycol], the Moisturizing effect entry in series [2] was “Δ (40 or more and less than 50)”. Further, the “Moisturizing effect on skin” value in series [1] (setting [5]) is on record as “Δ”. For the same compound, the Moisture-absorption ability entry in series [3] was “Δ (Amount of absorbed water per 1 g of keratin powder is 0.40 g or more and less than 0.50 g)”. In series [4], the Stability entry is “Δ”.
As for `C[C@H](N)C(=O)O` [Alanine], the Stability entry in series [4] is listed as “X (Less than 1.8)”.
`Cl.N=C(N)NCCC[C@H](N)C(=O)O` [Arginine hydrochloride]: the Moisturizing effect entry in series [2] is “◯ (50 or more and less than 60)”. In addition, the change in vivo at 5 % in series [1] is more than 10%. In series [3], the Moisture-absorption ability result is “◯ (Amount of absorbed water per 1 g of keratin powder is 0.50 g or more and less than 0.60 g)”. In addition, in series [4], the Stability entry was “◯”.
Regarding `OCC(O)CO` [Glycerin], in series [2], the Moisturizing effect entry is “◯ (50 or more and less than 60)”. The Moisture-absorption ability entry in series [3] is “◯ (Amount of absorbed water per 1 g of keratin powder is 0.50 g or more and less than 0.60 g)”. For the same compound, the Stability entry in series [4] is reported as “◯”.
`C[C@H](NCC(O)CO)C(=O)O` (some centres unmarked) [Glyceryl derivative of alanine, N-glycerylalanine]: the Moisturizing effect result in series [2] was “◯ (50 or more and less than 60)”. In series [1] (setting [5]), the change in vivo at 5 % is more than 10%. Besides, in series [3], the Moisture-absorption ability result was “⊚ (Amount of absorbed water per 1 g of keratin powder is 0.60 g or more)”. In addition, the Stability result in series [4] is “Δ”.
On to `Cl.N=C(N)NCCC[C@H](NCC(O)CO)C(=O)O` (some centres unmarked) [Glyceryl derivative of arginine, N-glycerylarginine hydrochloride], for which the Moisturizing effect entry in series [2] is “⊚ (60 or more)”. Moreover, the “Moisturizing effect on skin” value in series [1] (setting [5]) was “⊚”. In series [3], the Moisture-absorption ability entry is listed as “⊚ (Amount of absorbed water per 1 g of keratin powder is 0.60 g or more)”. In addition, the Stability result in series [4] is “⊚”.
Turning to `O=C([O-])CC[C@H](NCC(O)CO)C(=O)[O-].[Na+].[Na+]` (some centres unmarked) [Glyceryl derivative of glutamic acid, sodium N-glycerylglutamate], the Moisturizing effect entry in series [2] is reported as “⊚ (60 or more)”. For the same compound, in series [1] (setting [5]), the “Moisturizing effect on skin” value is on record as “⊚”. The Moisture-absorption ability entry in series [3] was “⊚ (Amount of absorbed water per 1 g of keratin powder is 0.60 g or more)”. The Stability entry in series [4] was “◯”.
Take `O=C(O)CNCC(O)CO` (centres unmarked) [Glyceryl derivative of glycine, N-glycerylglycine]: the Moisturizing effect entry in series [2] is “⊚ (60 or more)”. For the same compound, in series [1] (setting [5]), the change in vivo at 5 % was more than 10%. For the same compound, in series [3], the Moisture-absorption ability result is recorded as “⊚ (Amount of absorbed water per 1 g of keratin powder is 0.60 g or more)”. Also, the Stability entry in series [4] was “Δ”.
Turning to `Cl.O=C(O)[C@H](Cc1c[nH]cn1)NCC(O)CO` (some centres unmarked) [Glyceryl derivative of histidine, M-glycerylhistidine hydrochloride], the Moisturizing effect entry in series [2] is reported as “⊚ (60 or more)”. Besides, the “Moisturizing effect on skin” value in series [1] (setting [5]) was “⊚”. Besides, the Moisture-absorption ability result in series [3] is on record as “⊚ (Amount of absorbed water per 1 g of keratin powder is 0.60 g or more)”.
Turning to `CC(C)C[C@H](NCC(O)CO)C(=O)O` (some centres unmarked) [Glyceryl derivative of leucine, N-glycervylleucine], the Moisturizing effect entry in series [2] is “◯ (50 or more and less than 60)”. The “Moisturizing effect on skin” value in series [1] (setting [5]) is given as “◯ (Conductance changing ratio is 10% more)”. Besides, the Moisture-absorption ability entry in series [3] is “⊚ (Amount of absorbed water per 1 g of keratin powder is 0.60 g or more)”.
With `Cl.NCCCC[C@H](NCC(O)CO)C(=O)O` (some centres unmarked) [Glyceryl derivative of lysine, N-glyceryllysine hydrochloride], in series [2], the Moisturizing effect result is given as “⊚ (60 or more)”. Moreover, the “Moisturizing effect on skin” value in series [1] (setting [5]) is recorded as “⊚”. Besides, the Moisture-absorption ability result in series [3] is listed as “⊚ (Amount of absorbed water per 1 g of keratin powder is 0.60 g or more)”. Also, the Stability entry in series [4] was “Δ”.
On to `O=C(O)[C@H](Cc1ccccc1)NCC(O)CO` (some centres unmarked) [Glyceryl derivative of phenylalanine, N-glycerylphenylalanine], for which the Moisturizing effect entry in series [2] was “◯ (50 or more and less than 60)”. In addition, the change in vivo at 5 % in series [1] (setting [5]) was more than 10%. The Moisture-absorption ability entry in series [3] is given as “⊚ (Amount of absorbed water per 1 g of keratin powder is 0.60 g or more)”. Further, the Stability result in series [4] was “◯”.
As for `O=C(O)[C@@H]1CCCN1CC(O)CO` (some centres unmarked) [Glyceryl derivative of proline, N-glycerylproline], the Moisturizing effect result in series [2] is on record as “⊚ (60 or more)”. The change in vivo at 5 % in series [1] (setting [5]) is more than 10%. Besides, the Moisture-absorption ability result in series [3] is recorded as “⊚ (Amount of absorbed water per 1 g of keratin powder is 0.60 g or more)”. For the same compound, in series [4], the Stability entry was “Δ”.
Regarding `CN(CC(=O)O)CC(O)CO` (centres unmarked) [Glyceryl derivative of sarcosine, N-glyaerylsarcosine], the Moisturizing effect entry in series [2] is given as “⊚ (60 or more)”. Further, in series [1] (setting [5]), the “Moisturizing effect on skin” value is “◯ (Conductance changing ratio is 10% more)”. For the same compound, the Moisture-absorption ability result in series [3] was “⊚ (Amount of absorbed water per 1 g of keratin powder is 0.60 g or more)”.
As for `O=C(O)[C@H](CO)NCC(O)CO` (some centres unmarked) [Glyceryl derivative of serine, N-glycerylserine], the Moisturizing effect result in series [2] is reported as “⊚ (60 or more)”. Further, the change in vivo at 5 % in series [1] (setting [5]) was more than 10%. The Moisture-absorption ability entry in series [3] is “⊚ (Amount of absorbed water per 1 g of keratin powder is 0.60 g or more)”. For the same compound, the Stability entry in series [4] is “◯”.
Consider `NCC(=O)O` [Glycine], for which the Moisturizing effect result in series [2] was “Δ (40 or more and less than 50)”. Besides, in series [1] (setting [5]), the “Moisturizing effect on skin” value is “Δ”. The Moisture-absorption ability result in series [3] was “Δ (Amount of absorbed water per 1 g of keratin powder is 0.40 g or more and less than 0.50 g)”.
As for `Cl.N[C@@H](Cc1cnc[nH]1)C(=O)O` [Histidine hdrochloride], the Moisturizing effect result in series [2] was “Δ (40 or more and less than 50)”. Besides, the “Moisturizing effect on skin” value in series [1] (setting [5]) is “Δ”. Also, the Moisture-absorption ability result in series [3] is “Δ (Amount of absorbed water per 1 g of keratin powder is 0.40 g or more and less than 0.50 g)”.
In the case of `CC(C)C[C@H](N)C(=O)O` [Leucine], the change in vivo at 5 % in series [1] (setting [5]) is less than 3%. In series [4], the “Formation of homogeneous solution of sample” value is “did not form homogeneous solution” and the Stability entry is “Δ”.
Turning to `Cl.NCCCC[C@H](N)C(=O)O` [Lysine hydrochloride], the Moisturizing effect result in series [2] is “Δ (40 or more and less than 50)”. Also, in series [1] (setting [5]), the “Moisturizing effect on skin” value is reported as “Δ”. For the same compound, the Moisture-absorption ability result in series [3] was “Δ (Amount of absorbed water per 1 g of keratin powder is 0.40 g or more and less than 0.50 g)”. Besides, the Stability result in series [4] is listed as “Δ”.
As for `N[C@@H](Cc1ccccc1)C(=O)O` [Phenylalanine], the Moisturizing effect result in series [2] is “X (Less than 40)”. The change in vivo at 5 % in series [1] (setting [5]) was less than 3%. Also, the Moisture-absorption ability result in series [3] is on record as “X (Amount of absorbed water per 1 g of keratin powder is less than 0.40 g)”. In series [4], the “Formation of homogeneous solution of sample” value is recorded as “did not form homogeneous solution” and the Stability result is recorded as “Δ”.
With `O=C(O)[C@@H]1CCCN1` [Proline], the Moisturizing effect entry in series [2] is “◯ (50 or more and less than 60)”. Moreover, the “Moisturizing effect on skin” value in series [1] (setting [5]) was “Δ”. In addition, the Moisture-absorption ability result in series [3] is “◯ (Amount of absorbed water per 1 g of keratin powder is 0.50 g or more and less than 0.60 g)”.
Take `CNCC(=O)O` [Sarcosine]: the Moisturizing effect result in series [2] was “Δ (40 or more and less than 50)”. For the same compound, in series [1] (setting [5]), the change in vivo at 5 % is less than 3%. For the same compound, the Moisture-absorption ability result in series [3] is “Δ (Amount of absorbed water per 1 g of keratin powder is 0.40 g or more and less than 0.50 g)”. Moreover, the Stability entry in series [4] is recorded as “Δ”.
For the compound `N[C@@H](CO)C(=O)O` [Serine], in series [2], the Moisturizing effect result was “Δ (40 or more and less than 50)”. Moreover, the change in vivo at 5 % in series [1] (setting [5]) is less than 3%. The Moisture-absorption ability entry in series [3] was “Δ (Amount of absorbed water per 1 g of keratin powder is 0.40 g or more and less than 0.50 g)”.
For the compound `N[C@@H](CC(=O)[O-])C(=O)[O-].O.[Na+].[Na+]` [Sodium aspartate hydrate], the Moisturizing effect entry in series [2] is “Δ (40 or more and less than 50)”. For the same compound, in series [1] (setting [5]), the “Moisturizing effect on skin” value was “Δ”. Also, the Moisture-absorption ability entry in series [3] was “Δ (Amount of absorbed water per 1 g of keratin powder is 0.40 g or more and less than 0.50 g)”. The Stability entry in series [4] is recorded as “Δ”.
